Data: patent publication US4454145A, “Nicotinates of alkanediols having hypolipidaemic activity and pharmaceutical compositions containing them” (Alfa Farmaceutici S.p.A., priority 1981, dated 1984)
Where two headings read alike, the source gives them in different places.

Experiments:
Type in all cases: in vivo, Male Wistar rats
[1] = test system: hypertriglyceridemia caused by fructose; experiment: Test A: decrease of triglycerides content in the serum of rats due to hypertriglyceridemia caused by fructose; details: for change in vivo at 50 mg/kg: Rattus norvegicus, po, 72 h, read-out: ΔTGhematic (percent decrease of the hematic triglycerides); for change in vivo at 50 mg/kg / ΔTGhematic (percent decrease of the hematic triglycerides): 50 mg/Kg/os/die, three days, fructose diet; for ED50, Test diet of fructose: Table 3, oral
From the text: (A) Determination of the decrease of triglycerides content in the serum of rats due to hypertriglyceridemia caused by fructose.
Male Wistar rats weighing 260±20 g, normally fed, subdivided in groups of 6 animals each, are used. The test lasts three days: in the first day the animals are normally fed but are kept without drinking water; in the second and third day they receive a 20% (w/v) water solution of fructose instead of water; moreover in the second day they are fed by means of a gastric probe with further 4 ml of 50% (w/v) aqueous solution of fructose. […] The animals are sacrificed undr ethereal anaesthesia 4 hours after the treatment of the third day and the blood is drawn by an intracardiacal injection.
The percent decrease of the hematic triglycerides due to the treatment with the compound to be tested is expressed as ΔTGhematic and is represented by the following formula: [formula] TG=triglycerides.

[2] = test system: hypertriglyceridemia caused by ethanol; experiment: Test C: decrease of triglycerides content in the serum of rats based on hypertriglyceridemia caused by ethanol; details: Table 3, oral, ethanol in drinking water
From the text: (C) Determination of the decrease of triglycerides content in the serum of rats based on hypertriglyceridemia caused by ethanol. Male Wistar rats weighing 260±20 g, normally fed, are subdivided in experimental groups of 10 animals each: (1) control group, normally fed; (2) diet group, given drinking water containing 10% (v/v) of ethanol since the second day; (3) treated group, given drinking water containing 10% (v/v) of ethanol and treated with the compounds to be tested from the second day. At the beginning of the fourth day, after 18 hours of fast, the animals are sacrificed under ethereal anaesthesia by means of an intracardiacal injection. The dosage of the triglycerides is carried out on the serum using the enzymatic method described by […]. and […]. […] The percent decrease of the triglycerides has been calculated as above.

[3] = test system: total cholesterol in rats fed with hypercholesterolemic diet; experiment: Test B: variation of total cholesterol in rats fed with Tensho et al. hypercholesterolemic diet; details: Table 3, oral
From the text: (B) Determination of the variation of total cholesterol in rats fed with Greenberg […] diet modified according to Tensho et al.
The rats are subdivided in 3 experimental groups:
(1) control group, normally fed;
(2) diet group, fed only with the Tensho diet;
(3) treated group, fed with the Tensho diet and treated with the compounds to be tested.
At the beginning of the eighth day the rats, fasted since the previous evenging, are sacrified under ethereal anaesthesia by means of an intracardiacal injection. […] The percent decrease of the hematic cholesterol is calculated by means of the following formula: [formula] Ch=cholesterol

SMILES | change in vivo at 50 mg/kg ([1]; Table 1, esters) [%] | change in vivo at 50 mg/kg ([1]; Table 2, acids and alcohols) [%] | further results
CC(C)(CCCCC(C)(C)COC(=O)c1cccnc1)COC(=O)c1cccnc1 [Example 1, 2,2,7,7-Tetramethyl-1,8-octanediol dinicotinate] | -60 |  | 
CC(C)(CCCCCC(C)(C)COC(=O)c1cccnc1)COC(=O)c1cccnc1 [Example 2, 2,2,8,8-Tetramethyl-1,9-nonanediol dinicotinate] | -80 |  | 
CC(C)(CCCCCCC(C)(C)COC(=O)c1cccnc1)COC(=O)c1cccnc1 [Example 3, 2,2,9,9-Tetramethyl-1,10-decanediol dinicotinate] | -99 |  | ED50, Test diet of fructose [1]: 0.0034 mmole/Kg/os/die; ED50, Test diet of ethanol [2]: 0.0727 mmole/Kg/os/die; ED50, Test diet of Tensho [3]: 0.0900 mmole/Kg/os/die
CC(C)(CCCCCCCC(C)(C)COC(=O)c1cccnc1)COC(=O)c1cccnc1 [Example 4, 2,2,10,10-Tetramethyl-1,11-undecanediol dinicotinate] | -92.5 |  | ED50, Test diet of fructose [1]: 0.0029 mmole/Kg/os/die; ED50, Test diet of ethanol [2]: 0.0718 mmole/Kg/os/die; ED50, Test diet of Tensho [3]: 0.0891 mmole/Kg/os/die
CC(C)(CCCCCCCCC(C)(C)COC(=O)c1cccnc1)COC(=O)c1cccnc1 [Example 5, 2,2,11,11-Tetramethyl-1,12-dodecanediol dinicotinate] | -98 |  | ED50, Test diet of fructose [1]: 0.0026 mmole/Kg/os/die; ED50, Test diet of ethanol [2]: 0.0707 mmole/Kg/os/die; ED50, Test diet of Tensho [3]: 0.0880 mmole/Kg/os/die
CCC(C)(CCCCCCC(C)(CC)C(=O)O)C(=O)O (stereo not drawn) [Example 7, 2,9-Diethyl-2,9-dimethyl-1,10-decanedioic acid] |  | -82.1 | 
CCC(C)(CO)CCCCCCC(C)(CC)CO (stereo not drawn) [Example 8, 2,9-Diethyl-2,9-dimethyl-1,10-decanediol] |  | -81.5 | 
CC(C)(CCCCCCCC(C)(C)C(=O)O)C(=O)O [Example 13] |  | -91.8 | 
CC(C)(CO)CCCCCCCC(C)(C)CO [Example 14] |  | -92 | 
CCC(C)(CCCCCCCC(C)(CC)C(=O)O)C(=O)O (stereo not drawn) [Example 15] |  | -97 | 
CCC(C)(CO)CCCCCCCC(C)(CC)CO (stereo not drawn) [Example 16] |  | -90 | 
CC(C)(CCCCCCCCC(C)(C)C(=O)O)C(=O)O [Example 17] |  | -97.5 | 
CC(C)(CO)CCCCCCCCC(C)(C)CO [Example 18] |  | -93.4 | 
CCC(C)(CCCCCCCCC(C)(CC)C(=O)O)C(=O)O (stereo not drawn) [Example 19] |  | -57.4 | 
CCC(C)(CO)CCCCCCCCC(C)(CC)CO (stereo not drawn) [Example 20] |  | -50.1 | 
CCCC(C)(CCCCCCCCC(C)(CCC)C(=O)O)C(=O)O (stereo not drawn) [Example 21] |  | -64.3 | 
CCCC(C)(CO)CCCCCCCCC(C)(CO)CCC (stereo not drawn) [Example 22] |  | -45.2 | 
CCCCC(C)(CCCCCCCCC(C)(CCCC)C(=O)O)C(=O)O (stereo not drawn) [Example 23] |  | -62.4 | 
CCCCC(C)(CO)CCCCCCCCC(C)(CO)CCCC (stereo not drawn) [Example 24] |  | -60.2 | 

SMILES | change in vivo at 50 mg/kg ([1]; Table 1, esters) [%] | change in vivo at 50 mg/kg ([1]; Table 2, acids and alcohols) [%] | further results
O=C(O)c1cccnc1 [Nicotinic acid, reference compound] |  |  | ED50, Test diet of fructose [1]: 0.4760 mmole/Kg/os/die; ED50, Test diet of ethanol [2]: 0.4800 mmole/Kg/os/die; ED50, Test diet of Tensho [3]: 0.3020 mmole/Kg/os/die
CCC(C)(CCCCCCC(C)(CC)COC(=O)c1cccnc1)COC(=O)c1cccnc1 (stereo not drawn) [Table 1 No. 4, 2,9-diethyl-2,9-dimethyl-1,10-decanediol dinicotinate] | -87 |  | 
CCCC(C)(CCCCCCC(C)(CCC)COC(=O)c1cccnc1)COC(=O)c1cccnc1 (stereo not drawn) [Table 1 No. 5, 2,9-dimethyl-2,9-di-n-propyl-1,10-decanediol dinicotinate] | -90 |  | 
CCCCC(C)(CCCCCCC(C)(CCCC)COC(=O)c1cccnc1)COC(=O)c1cccnc1 (stereo not drawn) [Table 1 No. 6, 2,9-di-n-butyl-2,9-dimethyl-1,10-decanediol dinicotinate] | -85.6 |  | 
CCC(C)(CCCCCCCC(C)(CC)COC(=O)c1cccnc1)COC(=O)c1cccnc1 (stereo not drawn) [Table 1 No. 8, 2,10-diethyl-2,10-dimethyl-1,11-undecanediol dinicotinate] | -98 |  | 
CCC(C)(CCCCCCCCC(C)(CC)COC(=O)c1cccnc1)COC(=O)c1cccnc1 (stereo not drawn) [Table 1 No. 10, 2,11-diethyl-2,11-dimethyl-1,12-dodecanediol dinicotinate] | -66 |  | 
CCCC(C)(CCCCCCCCC(C)(CCC)COC(=O)c1cccnc1)COC(=O)c1cccnc1 (stereo not drawn) [Table 1 No. 11, 2,11-dimethyl-2,11-di-n-propyl-1,12-dodecanediol dinicotinate] | -65.8 |  | 
CCCCC(C)(CCCCCCCCC(C)(CCCC)COC(=O)c1cccnc1)COC(=O)c1cccnc1 (stereo not drawn) [Table 1 No. 12, 2,11-di-n-butyl-2,11-dimethyl-1,12-dodecanediol dinicotinate] | -59.1 |  | 
CC(C)(CCCCC(C)(C)C(=O)O)C(=O)O [Table 2 No. 1] |  |  | ΔTGhematic (percent decrease of the hematic triglycerides) ([1]; Table 2, acids and alcohols): inactive
CC(C)(CO)CCCCC(C)(C)CO [Table 2 No. 2, 2,2,7,7-tetramethyl-1,8-octanediol] |  |  | ΔTGhematic (percent decrease of the hematic triglycerides) ([1]; Table 2, acids and alcohols): inactive
CC(C)(CCCCCC(C)(C)C(=O)O)C(=O)O [Table 2 No. 3] |  |  | ΔTGhematic (percent decrease of the hematic triglycerides) ([1]; Table 2, acids and alcohols): inactive
CC(C)(CO)CCCCCC(C)(C)CO [Table 2 No. 4, 2,2,8,8-tetramethyl-1,9-nonanediol] |  |  | ΔTGhematic (percent decrease of the hematic triglycerides) ([1]; Table 2, acids and alcohols): inactive
CC(C)(CCCCCCC(C)(C)C(=O)O)C(=O)O [Table 2 No. 5] |  | -91.8 | 
CC(C)(CO)CCCCCCC(C)(C)CO [Table 2 No. 6, 2,2,9,9-tetramethyl-1,10-decanediol] |  | -94 | 
CCCC(C)(CCCCCCC(C)(CCC)C(=O)O)C(=O)O (stereo not drawn) [Table 2 No. 9] |  | -89.5 | 
CCCC(C)(CO)CCCCCCC(C)(CO)CCC (stereo not drawn) [Table 2 No. 10, 2,9-dimethyl-2,9-di-n-propyl-1,10-decanediol] |  | -88.3 | 
CCCCC(C)(CCCCCCC(C)(CCCC)C(=O)O)C(=O)O (stereo not drawn) [Table 2 No. 11] |  | -65.4 | 
CCCCC(C)(CO)CCCCCCC(C)(CO)CCCC (stereo not drawn) [Table 2 No. 12, 2,9-di-n-butyl-2,9-dimethyl-1,10-decanediol] |  | -58.7 | 
